Patent EP4748841A1, “BICYCLO[5,6] IMIDAZOLE PYRIMIDONE DERIVATIVE AND PREPARATION METHOD THEREFOR AND USE THEREOF” (Shujing Biopharma Co., Ltd, priority 2023, dated 2025)

target: T1, Lp-PLA2 (Homo sapiens, UniProt Q13093); test: Inhibitory activity against Lp-PLA2 in human plasma (Thio-PAF assay); type: biochemical; conditions: 2-thio-PAF substrate, 30 min pre-incubation
T1 construct: from tissue; host or cells: pooled (mixed) human plasma
T1 sequence (Q13093 22-441): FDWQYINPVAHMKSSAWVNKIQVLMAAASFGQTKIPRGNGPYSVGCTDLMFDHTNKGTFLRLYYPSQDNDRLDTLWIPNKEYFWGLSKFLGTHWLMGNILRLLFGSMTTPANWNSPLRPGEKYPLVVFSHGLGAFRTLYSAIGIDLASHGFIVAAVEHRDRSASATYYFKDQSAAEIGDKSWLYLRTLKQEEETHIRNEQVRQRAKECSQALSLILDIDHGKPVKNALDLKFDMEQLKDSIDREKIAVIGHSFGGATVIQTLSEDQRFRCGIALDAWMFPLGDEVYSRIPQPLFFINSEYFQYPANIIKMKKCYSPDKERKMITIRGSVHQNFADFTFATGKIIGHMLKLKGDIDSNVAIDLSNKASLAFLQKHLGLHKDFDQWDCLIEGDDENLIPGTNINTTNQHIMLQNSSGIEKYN
Text: The literature reports that 2-Thio-PAF, commercially available from Cayman Chemical, is a substrate for PAF hydrolase (PAF-AH). After its cleavage by PAF-AH, the free thiol released at the sn-2 position can react with 7-diethylamino-3-(4'-maleimidophenyl)-4-methylcoumarin (CPM), resulting in increased fluorescence. Thus, Lp-PLA2 inhibitors can prevent this cleavage, and no increase in fluorescence is observed. In this experiment, the human plasma assay employed the same thioester analog of PAF as described in the recombinant human Lp-PLA2 assay described above.
• (1) The Thio-PAF assay was performed as a quenched 75 µL assay. A compound source plate was prepared by preparing 1:4 (v/v) serial diluents of the compounds in pure DMSO in a 96-well microplate. • (2) 1 µL of each test compound from the compound source plate was transferred into a 96-well microplate containing 40 µL of pre-thawed mixed human plasma by a Rainin multichannel pipette, and the plasma was thawed at room temperature and centrifuged at 2000 rpm for 10 min. The plate was shaken on a microplate shaker for 2 min for uniform mixing. • (3) After 30 min of pre-incubation at room temperature, 10 µL of a substrate solution was added sequentially to the 96-well microplate described above by a Rainin multichannel pipette. The substrate solution contained 2.5 mM 2-thio-PAF (from an ethanol mother liquor), 32 µM CPM (from a DMSO mother liquor), and 3.2 mM N-ethylmaleimide (freshly prepared in DMSO for each experiment) in assay buffer (pH 7.4) consisting of 50 mM HEPES, 150 mM NaCl, and 1 mM CHAPS. After the addition was completed, the plate was immediately shaken for 2 min, and the reaction time for the substrate was 4 min in total. After the reaction was completed, the reaction was quenched with 25 µL of an aqueous solution of 5% trifluoroacetic acid. The plate was centrifuged at 1000 rpm for 1 min. • (4) The FLINT signal (FLINT380/480) was read using a microplate reader. • (5) IC50 data, curve fitting, and QC analyses were performed using GraphPad Prism 8.0 and Excel.

Question: `O=c1nc(OCc2ccc(Oc3ccc(F)c(F)c3)c(F)c2)cc2n1CC1CCN21` (stereo not shown) [Example 24, 3-((4-(3,4-Difluorophenoxy)-3-fluorobenzyl)oxy)-6,7,7a,8-tetrahydro-1H-azeto[1',2':3,4]imidazo[1,2-c]pyrimidin-1-one] was tested. Which IC50 did it give?
Answer: 0.0127 µM

Question: `O=c1nc(OCc2ccc(Oc3ccc(C(F)(F)F)nc3)c(F)c2)cc2n1CC1CCN21` (stereo not shown) [Example 1] was tested. Which IC50 did it give?
Answer: 0.0039 µM

Question: How did the IC50 turn out when `Cn1cc(Oc2c(F)cc(COc3cc4n(c(=O)n3)CC3CCN43)cc2F)cn1` (stereo not shown) [Example 45] was run?
Answer: 0.203 µM

Question: Which IC50 does the source give for `Cc1ccc(Oc2c(F)cc(COc3cc4n(c(=O)n3)C[C@@H]3CCN43)cc2F)cn1` [Example 36-S] here?
Answer: 0.0964 µM

Question: With `O=c1nc(OCc2ccc(Oc3ccc(Cl)c(C(F)(F)F)c3)cc2)cc2n1CC1CCN21` (stereo not shown) [Example 50, 3-((4-(4-Chloro-3-(trifluoromethyl)phenoxy)benzyl)oxy)-6,7,7a,8-tetrahydro-1H-azeto[1',2':3,4]imidazo[1,2-c]pyrimidin-1-one] as the compound, how does the IC50 read?
Answer: 0.0126 µM

Question: For `O=c1nc(OCc2cc(F)c(Oc3ccc(C(F)(F)F)nc3)c(F)c2)cc2n1CC1CCN21` (stereo not shown) [Example 52], which IC50 is on record?
Answer: 0.0043 µM

Question: Which IC50 does the source give for `Cc1ccc(Oc2c(F)cc(COc3cc4n(c(=O)n3)CC3CCN43)cc2F)cn1` (stereo not shown) [Example 36] here?
Answer: 0.0358 µM

Question: `O=c1nc(OCc2cc(F)c(Oc3ccnc(C(F)(F)F)c3)c(F)c2)cc2n1CC1CCN21` (stereo not shown) [Example 34] was tested. Which IC50 did it give?
Answer: 0.0052 µM

Question: How did the IC50 turn out when `N#Cc1ccc(COc2cc3n(c(=O)n2)CC2CCN32)cc1` (stereo not shown) [Example 28, 3-((4-Cyanobenzyl)oxy)-6,7,7a,8-tetrahydro-1H-azeto[1',2':3,4]imidazo[1,2-c]pyrimidin-1-one] was run?
Answer: 0.892 µM

Question: With `N#Cc1cc(COc2cc3n(c(=O)n2)CC2CCN32)ccc1Oc1ccc(C(F)(F)F)cn1` (stereo not shown) [Example 21, 5-(((1-Oxo-6,7,7a,8-tetrahydro-1H-azeto[1',2':3,4]imidazo[1,2-c]pyrimidin-3-yl)oxy)methyl)-2-((5-(trifluoromethyl)pyridin-2-yl)oxy)benzonitrile] as the compound, how does the IC50 read?
Answer: 0.2 µM

Question: Which IC50 does the source give for `O=c1nc(OCc2ccc(Oc3ccccc3)cc2)cc2n1CC1CCN21` (stereo not shown) [Example 12, 3-((4-Phenoxybenzyl)oxy)-6,7,7a,8-tetrahydro-1H-azeto[1',2':3,4]imidazo[1,2-c]pyrimidin-1-one] here?
Answer: 2.09 µM

Question: How did the IC50 turn out when `O=c1nc(OCc2ccc(F)cc2)cc2n1CC1CCN21` (stereo not shown) [Example 7, 3-((4-Fluorobenzyl)oxy)-6,7,7a,8-tetrahydro-1H-azeto[1',2':3,4]imidazo[1,2-c]pyrimidin-1-one] was run?
Answer: 0.0687 µM

Question: How did the IC50 turn out when `O=c1nc(OCc2cc(F)c(Oc3ccnc(C(F)(F)F)c3)c(F)c2)cc2n1C[C@@H]1CCN21` [Example 34-S] was run?
Answer: 0.0523 µM

Question: With `N#Cc1cc(COc2cc3n(c(=O)n2)CC2CCN32)ccc1Oc1cccc(C(F)(F)F)c1` (stereo not shown) [Example 22, 5-(((1-Oxo-6,7,7a,8-tetrahydro-1H-azeto[1',2':3,4]imidazo[1,2-c]pyrimidin-3-yl)oxy)methyl)-2-(3-(trifluoromethyl)phenoxy)benzonitrile] as the compound, how does the IC50 read?
Answer: 0.0046 µM

Question: Which IC50 does the source give for `Cc1ncc(Oc2c(F)cc(COc3cc4n(c(=O)n3)CC3CCN43)cc2F)cn1` (stereo not shown) [Example 44] here?
Answer: 0.0256 µM

Question: Which IC50 does the source give for `O=c1nc(OCc2ccc(Oc3ccccc3)nc2)cc2n1CC1CCN21` (stereo not shown) [Example 16, 3-((6-Phenoxypyridin-3-yl)methoxy)-6,7,7a,8-tetrahydro-1H-azeto[1',2':3,4]imidazo[1,2-c]pyrimidin-1-one] here?
Answer: 2.74 µM

Question: `O=c1nc(OCc2cnc(Oc3ccc(Cl)c(C(F)(F)F)c3)c(F)c2)cc2n1CC1CCN21` (stereo not shown) [Example 38, 3-((6-(4-Chloro-3-(trifluoromethyl)phenoxy)-5-fluoropyridin-3-yl)methoxy)-6,7,7a,8-tetrahydro-1H-azeto[1',2':3,4]imidazo[1,2-c]pyrimidin-1-one] was tested. Which IC50 did it give?
Answer: 0.0563 µM

Question: How did the IC50 turn out when `Cc1ccc(Oc2c(F)cc(COc3cc4n(c(=O)n3)C[C@H]3CCN43)cc2F)cn1` [Example 36-R] was run?
Answer: 0.0159 µM

Question: With `N#Cc1cc(Oc2ccc(COc3cc4n(c(=O)n3)CC3CCN43)cc2F)ccc1Cl` (stereo not shown) [Example 53, 2-Chloro-5-(2-fluoro-4-(((1-oxo-6,7,7a,8-tetrahydro-1H-azeto[1',2':3,4]imidazo[1,2-c]pyrimidin-3-yl)oxy)methyl)phenoxy)benzonitrile] as the compound, how does the IC50 read?
Answer: 0.107 µM

Question: With `O=c1nc(OCc2ccc(Oc3ccc(F)c(C(F)(F)F)c3)nc2)cc2n1CC1CCN21` (stereo not shown) [Example 41, 3-((6-(4-Fluoro-3-(trifluoromethyl)phenoxy)pyridin-3-yl)methoxy)-6,7,7a,8-tetrahydro-1H-azeto[1',2':3,4]imidazo[1,2-c]pyrimidin-1-one] as the compound, how does the IC50 read?
Answer: 0.292 µM

Question: Which IC50 does the source give for `Cc1ccc(COc2cc3n(c(=O)n2)CC2CCN32)cc1` (stereo not shown) [Example 8, 3-((4-Methylbenzyl)oxy)-6,7,7a,8-tetrahydro-1H-azeto[1',2':3,4]imidazo[1,2-c]pyrimidin-1-one] here?
Answer: 2.43 µM

Question: `O=c1nc(OCc2ccc(Oc3ccnc(C(F)(F)F)c3)c(F)c2)cc2n1CC1CCN21` (stereo not shown) [Example 23] was tested. Which IC50 did it give?
Answer: 0.0043 µM

Question: For `O=c1nc(OCc2ccc(F)c(F)c2)cc2n1CC1CCN21` (stereo not shown) [Example 54, 3-((3,4-Difluorobenzyl)oxy)-6,7,7a,8-tetrahydro-1H-azeto[1',2':3,4]imidazo[1,2-c]pyrimidin-1-one], which IC50 is on record?
Answer: 0.0303 µM

Question: How did the IC50 turn out when `N#Cc1cc(COc2cc3n(c(=O)n2)CC2CCN32)ccc1Oc1ccc(Cl)c(C(F)(F)F)c1` (stereo not shown) [Example 39, 2-(4-Chloro-3-(trifluoromethyl)phenoxy)-5-(((1-oxo-6,7,7a,8-tetrahydro-1H-azeto[1',2':3,4]imidazo[1,2-c]pyrimidin-3-yl)oxy)methyl)benzonitrile] was run?
Answer: 0.0039 µM

Question: How did the IC50 turn out when `O=c1nc(OCc2ccc(Oc3cnc(C(F)(F)F)nc3)c(F)c2)cc2n1CC1CCN21` (stereo not shown) [Example 51] was run?
Answer: 0.0212 µM
